Results taken from US12286429B2, “5-oxo-1,2,3,5,8,8a-hexahydroindolizine-3-carboxamide derivatives useful as a factor XIa inhibitors” (Janssen Pharmaceutica NV, priority 2021, dated 2025).

Assays:
human plasma kallikrein = human plasma kallikrein (Homo sapiens, UniProt P03952); assay: Kallikrein inhibition assay utilizing a quenched AMC peptide substrate (FLINT); assay type: biochemical; details: 11-point, 3-fold serial dilution, top 1 μM; 30 min preincubation; 2 nM kallikrein; 50 μM Z-Gly-Pro-Arg-AMC; kinetic reads over 30 min
Experimental: Biological Example 2: Kallikrein Inhibition Assay Utilizing a Quenched AMC Peptide Substrate
A fluorescence intensity (FLINT) based assay was used to monitor inhibition of human plasma kallikrein. The peptide substrate, Z-Gly-Pro-Arg-AMC (Purchased from Bachem; Catalog #I-1150) was chosen based on its relatively low KM for kallikrein which enables running the assay at lower substrate concentrations to control background fluorescence. The kinetic parameters for this substrate were determined by fitting titration data to the Michaelis-Menten equation yielding a KM=40 μM, kcat=0.76 s^−1, and kcat/KM=18932 M^−1s^−1.
The Kallikrein FLINT assay was used with the following Z-Gly-Pro-Arg-AMC assay buffer: 50 mM Tris, pH 7.5, 100 mM NaCl, 5 mM CaCl2, 0.1 mg/mL BSA, 0.03% CHAPS. Assay buffer was prepared by mixing all ingredients fresh. 2× Z-Gly-Pro-Arg-AMC peptide substrate was prepared by diluting 10 mM stock into 1× assay buffer for a 100 μM working concentration (50 μM final concentration). The 2× kallikrein stock solution was prepared by diluting 14.76 μM stock in 1× assay buffer for a 4 nM working stock solution (2 nM final concentration).
Test compound(s) were run in an 11-point, 3-fold serial dilution with a final top compound concentration of 1 μM. Final DMSO in assay was 2%. Plasma kallikrein was pre-incubated for 30-minute with compound and then 50 μM substrate was added to initiate the reaction. The assay was run with kinetic (KIN) reads at 5 min intervals over 30 minutes. The time course was linear using 2 nM kallikrein greater than 30 minutes. More specifically, the assay was run as follows: • 100 nL of 0.1 mM test compound was dispensed into black 384-well non-binding Greiner BioOne 784900 plate for 1 μM final concentration; • 5 μL of 1× assay buffer was dispensed to columns 24 (low control) and 5 μL 2× human kallikrein enzyme solution was dispensed to columns 1-23 (column 23 high control); • the plate was centrifuged with a “cover” plate at 500 rpm for 1 min • the plate was pre-incubated for 30 minutes at room temperature with plate covered; • 5 μL of 2× Z-Gly-Pro-Arg-AMC peptide substrate was dispensed into the entire plate, columns 1-24; • the plate was centrifuged with a “cover” plate at 500 rpm for 1 min; • the plate was read monitoring fluorescence intensity on the BMG PHERAStar at room temperature, using fluorescence module 340 nm/440 nm.
(§1) Percent inhibition (IC50) curves were generated per compound tested, and data was analyzed using a 4-parameter logistic fit using GeneData Screener. The relative fluorescence unit (RFU) values were normalized to percent inhibition using the following equation: % inhibition=((HC−LC)−(compound−LC)/(HC−LC))*100
where LC—low control=mean signal of […] 100% inhibition of human kallikrein enzyme; HC—high control=mean signal of […]+Z-Gly-Pro-Arg-AMC peptide substrate with DMSO only.
(§2) An 11-point dose response curve for the test compound(s) was generated using GENDATA to determine IC50 value based on the following equation: Y=Bottom+(Top−Bottom)/(1+10^((log IC50−X)*HillSlope))
(§3) where Y is the % inhibition in the presence of X inhibitor concentration, Top=high control=mean signal of human kallikrein enzyme+Z-Gly-Pro-Arg-AMC peptide substrate with DMSO only; Bottom=low control—mean signal of no human kallikrein enzyme or 100% inhibition of human kallikrein enzyme; HillSlope—Hill coefficient; and IC50=concentration of compound with 50% inhibition in relation to top/high control.

Factor XIa = Factor XIa (Homo sapiens, UniProt P03951); assay: Factor XIa inhibition assay utilizing a fluorophore-quencher pair peptide substrate (FLINT); assay type: biochemical; details: 11-point, 3-fold serial dilution, top 100 nM; 30 min preincubation; 15 μM 5Fam-KLTRAETV-K5Tamra substrate; kinetic reads over 30 min; read-out: FXIa Inhibition IC50
Description: Biological Example 1: Factor XIa Inhibition Assay Utilizing a Fluorophore-Quencher Pair Peptide Substrate
A fluorescence intensity (FLINT) based assay was used to monitor inhibition of Factor XIa. The peptide substrate, 5Fam-KLTRAETV-K5Tamra (purchased from New England Peptide) was chosen based on the FXI sequence. Conversion of zymogen FXI to its activated form, FXIa, occurs by proteolytic cleavage by […] at two sites, Arg146 and Arg180. The custom peptide used in this assay was based on the Arg146 cleavage site of FXI. The peptide substrate was designed with a fluorophore-quencher pair, where the fluorescence is quenched until FXIa cleaves the 8-mer peptide after the Arg residue.
The Factor XIa FLINT assay was used with the following 5Fam-KLTRAETV-K5Tamra assay buffer: 50 mM Tris, pH 7.5, 100 mM NaCl, 5 mM CaCl2, 0.1 mg/mL BSA, 0.03% CHAPS. Assay buffer was prepared by mixing all ingredients fresh. 5Fam-KLTRAETV-K5Tamra peptide substrate was first prepared at 10 mM in 100% DMSO, then diluted to 3 mM in 100% DMSO. Assay buffer was then added directly to the 3 mM stock of substrate to prepare the 30 μM 2× working concentration (15 μM final concentration). The 2× Factor XIa stock solution was prepared by diluting 6.562 μM stock in 1× assay buffer for a […].
Test compound(s) were run in an 11-point, 3-fold serial dilution with a final top compound concentration of 100 nM. Final DMSO in assay was 2%. FXIa was preincubated with compound for 30-minutes and then substrate was added to initiate the reaction. The assay was run with kinetic (KIN) reads at 5 min intervals over 30 minutes. […] More specifically, the assay was run as follows: • 100 nL of 0.01 mM test compound was dispensed into black 384-well non-binding Greiner BioOne 784900 plate for 0.1 μM final concentration, • 5 μL of 1× assay buffer was dispensed to column 24 (low control) and 5 μL 2× Factor XIa solution was dispensed to columns 1-23 (column 23 high control); • the plate was centrifuged with a “cover” plate at 500 rpm for 1 min • the plate was pre-incubated for 30 minutes at room temperature with plate covered; • 5 μL of 2×5Fam-KLTRAETV-K5Tamra peptide substrate was dispensed into the entire plate, columns 1-24; • the plate was centrifuged with a “cover” plate at 500 rpm for 1 min; • the plate was read monitoring fluorescence intensity on the BMG PHERAStar at room temperature, using fluorescence module 485 nm/520 nm.
as §1
where LC—low control=mean signal of no Factor XIa or 100% inhibition of Factor XIa; HC—high control=mean signal of Factor XIa+5Fam-KLTRAETV-K5Tamra peptide substrate with DMSO only.
as §2
as §3, with “Factor XIa+5Fam-KLTRAETV-K5Tamra” for “human kallikrein enzyme+Z-Gly-Pro-Arg-AMC”, “Factor XIa” for “human kallikrein enzyme”, “Factor XIa;” for “human kallikrein enzyme;”

human plasma kallikrein, sequence (P03952 391-638 limits assumed): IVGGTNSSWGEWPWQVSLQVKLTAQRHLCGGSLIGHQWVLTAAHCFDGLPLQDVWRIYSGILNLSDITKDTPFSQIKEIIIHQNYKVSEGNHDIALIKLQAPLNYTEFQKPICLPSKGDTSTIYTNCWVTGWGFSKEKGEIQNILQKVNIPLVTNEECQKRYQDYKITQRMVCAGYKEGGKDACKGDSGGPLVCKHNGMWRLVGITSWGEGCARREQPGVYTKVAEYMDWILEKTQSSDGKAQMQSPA
human plasma kallikrein, sequence (P03952 20-390 partner limits assumed): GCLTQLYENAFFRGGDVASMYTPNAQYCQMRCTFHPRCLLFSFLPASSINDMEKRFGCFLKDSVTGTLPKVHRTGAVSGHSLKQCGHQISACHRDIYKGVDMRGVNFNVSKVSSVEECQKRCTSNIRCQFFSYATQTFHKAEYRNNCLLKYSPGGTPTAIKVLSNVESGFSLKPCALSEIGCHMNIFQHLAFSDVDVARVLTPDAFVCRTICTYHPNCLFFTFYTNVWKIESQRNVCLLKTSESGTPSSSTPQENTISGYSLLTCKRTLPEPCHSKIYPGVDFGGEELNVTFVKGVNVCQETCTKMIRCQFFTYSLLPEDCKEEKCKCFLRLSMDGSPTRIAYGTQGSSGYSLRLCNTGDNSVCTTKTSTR
Factor XIa, sequence (P03951 388-625 limits assumed): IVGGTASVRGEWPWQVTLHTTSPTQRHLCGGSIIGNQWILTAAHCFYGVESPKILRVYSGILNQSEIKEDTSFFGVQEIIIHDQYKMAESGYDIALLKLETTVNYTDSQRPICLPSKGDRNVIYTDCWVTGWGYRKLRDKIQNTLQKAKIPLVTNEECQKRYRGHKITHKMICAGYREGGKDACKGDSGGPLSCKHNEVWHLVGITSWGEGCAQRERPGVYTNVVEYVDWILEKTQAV
Factor XIa, sequence (P03951 19-387 partner limits assumed): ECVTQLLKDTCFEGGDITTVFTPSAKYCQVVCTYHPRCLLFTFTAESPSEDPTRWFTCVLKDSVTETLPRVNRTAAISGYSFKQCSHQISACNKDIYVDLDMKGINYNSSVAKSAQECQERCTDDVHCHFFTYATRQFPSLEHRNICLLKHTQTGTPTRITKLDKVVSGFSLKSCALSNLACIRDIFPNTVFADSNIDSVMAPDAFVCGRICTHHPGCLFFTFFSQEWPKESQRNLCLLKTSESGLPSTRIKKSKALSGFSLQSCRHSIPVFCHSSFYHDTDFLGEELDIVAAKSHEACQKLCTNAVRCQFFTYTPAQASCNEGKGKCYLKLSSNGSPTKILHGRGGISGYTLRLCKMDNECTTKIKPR

SMILES	IC50 (human plasma kallikrein) [µM]	IC50 (Factor XIa) [µM]
CC(C)(O)c1nc2cc(NC(=O)[C@@H]3CCC4CC(c5c(-n6cnnn6)ccc(Cl)c5F)=CC(=O)N43)ccc2s1 (mixture of isomers) [compound 90]	0.109	> 0.05
CC(O)c1nc2cc(NC(=O)[C@@H]3CCC4CC(c5c(-n6cnnn6)ccc(Cl)c5F)=CC(=O)N43)ccc2s1 (mixture of isomers) [compound 91]	0.115	> 0.05
CC(O)c1nc2cc(NC(=O)[C@@H]3CCC4CC(c5c(-n6cnnn6)ccc(Cl)c5F)=CC(=O)N43)ccc2s1 (mixture of isomers) [compound 92]	0.0504	0.0335
CCOCCOc1ccc2cc(NC(=O)[C@@H]3CCC4CC(c5c(-n6cc(C(F)(F)F)nn6)ccc(Cl)c5F)=CC(=O)N43)ccc2n1 (mixture of isomers) [compound 107]	0.19	> 0.05
CO[C@H]1C[C@@H](C(=O)Nc2ccc3nn(C)cc3c2)N2C(=O)C=C(c3c(-n4cnnn4)ccc(Cl)c3F)CC12 (mixture of isomers) [compound 110]	–	> 0.1
COCCn1ncc2cc(NC(=O)[C@@H]3CCC4CC(c5c(-n6cnnn6)ccc(Cl)c5F)=CC(=O)N43)ccc21 (mixture of isomers) [ID No. 4, (3S)-7-(3-chloro-2-fluoro-6-(1H-tetrazol-1-yl)phenyl)-N-(1-(2-methoxyethyl)-1H-indazol-5-yl)-5-oxo-1,2,3,5,8,8a-hexahydroindolizine-3-carboxamide]	0.106	0.0269
O=C(O)c1[nH]c2ccc(NC(=O)[C@@H]3CCC4CC(c5c(-n6cnnn6)ccc(Cl)c5F)=CC(=O)N43)cc2c1F (mixture of isomers) [ID No. 26, 5-[[(3S)-7-[3-Chloro-2-fluoro-6-(tetrazol-1-yl)phenyl]-5-oxo-2,3,8,8a-tetrahydro-1H-indolizine-3-carbonyl]amino]-3-fluoro-1H-indole-2-carboxylic acid]	0.0604	0.0032
CO[C@H]1C[C@@H](C(=O)Nc2ccc3n[nH]cc3c2)N2C(=O)C=C(c3c(-n4cnnn4)ccc(Cl)c3F)CC12 (mixture of isomers) [ID No. 27, (1S,3S)-7-[3-Chloro-2-fluoro-6-(tetrazol-1-yl)phenyl]-N-(2H-indazol-5-yl)-1-methoxy-5-oxo-2,3,8,8a-tetrahydro-1H-indolizine-3-carboxamide]	–	0.136
CO[C@H]1C[C@@H](C(=O)Nc2ccc3nccnc3c2)N2C(=O)C=C(c3c(-n4cnnn4)ccc(Cl)c3F)CC12 (mixture of isomers) [ID No. 28, (1S,3S)-7-[3-Chloro-2-fluoro-6-(tetrazol-1-yl)phenyl]-1-methoxy-5-oxo-N-quinoxalin-6-yl-2,3,8,8a-tetrahydro-1H-indolizine-3-carboxamide]	0.431	~0.189
CO[C@H]1C[C@@H](C(=O)Nc2ccc3ncccc3c2)N2C(=O)C=C(c3c(-n4cnnn4)ccc(Cl)c3F)CC12 (mixture of isomers) [ID No. 29, (1S,3S)-7-[3-Chloro-2-fluoro-6-(tetrazol-1-yl)phenyl]-1-methoxy-5-oxo-N-(6-quinolyl)-2,3,8,8a-tetrahydro-1H-indolizine-3-carboxamide]	0.611	0.18
O=C(Nc1ccc(-c2nc(=O)o[nH]2)cc1)[C@@H]1CCC2CC(c3c(OCC(F)(F)F)ccc(Cl)c3F)=CC(=O)N21 (mixture of isomers) [ID No. 40, (3S)-7-(3-Chloro-2-fluoro-6-(2,2,2-trifluoroethoxy)phenyl)-5-oxo-N-(4-(5-oxo-2,5-dihydro-1,2,4-oxadiazol-3-yl)phenyl)-1,2,3,5,8,8a-hexahydroindolizine-3-carboxamide]	–	0.0308
Cn1oc(=O)nc1-c1ccc(NC(=O)[C@@H]2CCC3CC(c4c(-n5cnnn5)ccc(Cl)c4F)=CC(=O)N32)cc1 (mixture of isomers) [ID No. 67, (3S)-7-[3-Chloro-2-fluoro-6-(tetrazol-1-yl)phenyl]-N-[4-(2-methyl-5-oxo-1,2,4-oxadiazol-3-yl)phenyl]-5-oxo-2,3,8,8a-tetrahydro-1H-indolizine-3-carboxamide]	–	0.183
Cn1ccnc1-c1ccc(NC(=O)[C@@H]2CCC3CC(c4c(-n5cnnn5)ccc(Cl)c4F)=CC(=O)N32)cc1 (mixture of isomers) [ID No. 78, (3S)-7-[3-Chloro-2-fluoro-6-(tetrazol-1-yl)phenyl]-N-[4-(1-methylimidazol-2-yl)phenyl]-5-oxo-2,3,8,8a-tetrahydro-1H-indolizine-3-carboxamide]	–	0.0584
C[C@@H]1C[C@@H](C(=O)Nc2ccc3nccnc3c2)N2C(=O)C=C(c3c(-n4cnnn4)ccc(Cl)c3F)C[C@H]12 (single isomer, unassigned) [ID No. 81, (1R*,3S,8aR*)-7-[3-Chloro-2-fluoro-6-(tetrazol-1-yl)phenyl]-1-methyl-5-oxo-N-quinoxalin-6-yl-2,3,8,8a-tetrahydro-1H-indolizine-3-carboxamide]	–	0.639
COCCNC(=O)c1ccc(NC(=O)[C@@H]2CCC3CC(c4c(-n5cnnn5)ccc(Cl)c4F)=CC(=O)N32)cc1F (single isomer, unassigned) [ID No. 94, (3S,8aS*)-7-(3-chloro-2-fluoro-6-(1H-tetrazol-1-yl)phenyl)-N-(3-fluoro-4-((2-methoxyethyl)carbamoyl)phenyl)-5-oxo-1,2,3,5,8,8a-hexahydroindolizine-3-carboxamide]	–	> 0.05
O=C(O)C1CCc2ccc(NC(=O)[C@@H]3CC[C@@H]4CC(c5c(-n6cc(C(F)(F)F)nn6)ccc(Cl)c5F)=CC(=O)N43)cc21 (stereo partly drawn) [compound 104]	–	> 0.05
